Tests used:
Type in all cases: in vivo
Parameters in all cases: key: 5=81-100%; 4=61-80%; 3=41-60%; 2=21-40%; 1=1-20%; 0=no damage to the plant; -=not tested
[1] = test system: Amaranthus palmeri (AMAPA); test: Pre-emergence test, herbicidal damage; settings: 1000 g/ha unless otherwise stated, evaluated after 13 days, five-point scale
[2] = test system: Amaranthus retoflexus (AMARE); test: Pre-emergence test, herbicidal damage; settings: 1000 g/ha unless otherwise stated, evaluated after 13 days, five-point scale
[3] = test system: Echinochloa crus-galli (ECHCG); test: Pre-emergence test, herbicidal damage; settings: 1000 g/ha unless otherwise stated, evaluated after 13 days, five-point scale
[4] = test system: Zea mays (ZEAMX); test: Pre-emergence test, herbicidal damage; settings: 1000 g/ha unless otherwise stated, evaluated after 13 days, five-point scale
[5] = test system: Ipomoea hederacea (IPOHE); test: Pre-emergence test, herbicidal damage; settings: 1000 g/ha unless otherwise stated, evaluated after 13 days, five-point scale
[6] = test system: Setaria faberi (SETFA); test: Pre-emergence test, herbicidal damage; settings: 1000 g/ha unless otherwise stated, evaluated after 13 days, five-point scale
[7] = test system: Amaranthus palmeri (AMAPA); test: Post-emergence test, herbicidal damage; settings: sprayed after 8 days cultivation, 1000 g/ha unless otherwise stated, evaluated after 13 days, five-point scale
Protocol: (§1) Seeds of a variety of test species are sown in standard soil in pots Amaranthus palmeri (AMAPA), (Amaranthus retoflexus (AMARE), Echinochloa crus-galli (ECHCG), Zea mays (ZEAMX), Ipomoea 5 hederacea (IPOHE), and Setaria faberi (SETFA). After 8 days cultivation under controlled conditions in a glasshouse (at 24° C./16° C., day/night; 14 hours light; 65% humidity), the plants are sprayed with an aqueous spray solution derived from the formulation of the technical active ingredient in acetone/water (50:50) solution containing 0.5% Tween 20 (polyoxyethelyene sorbitan monolaurate, CAS RN 9005-64-5). Compounds are applied at 1000 g/ha unless otherwise stated. The test plants are then grown in a glasshouse under controlled conditions in a glasshouse (at 24° C./16° C., day/night; 14 hours light; 65% humidity) and watered twice daily. After 13 days the test is evaluated for the percentage damage caused to the plant. The biological activities are shown in the following table on a five-point scale (5=81-100%; 4=61-80%; 3=41-60%; 2=21-40%; 1=1-20%; 0=no damage to the plant; -=not tested).

[8] = test system: Amaranthus retoflexus (AMARE); test: Post-emergence test, herbicidal damage; settings: sprayed after 8 days cultivation, 1000 g/ha unless otherwise stated, evaluated after 13 days, five-point scale
Protocol: as §1

[9] = test system: Echinochloa crus-galli (ECHCG); test: Post-emergence test, herbicidal damage; settings: sprayed after 8 days cultivation, 1000 g/ha unless otherwise stated, evaluated after 13 days, five-point scale
Protocol: as §1

[10] = test system: Ipomoea hederacea (IPOHE); test: Post-emergence test, herbicidal damage; settings: sprayed after 8 days cultivation, 1000 g/ha unless otherwise stated, evaluated after 13 days, five-point scale
Protocol: as §1

[11] = test system: Setaria faberi (SETFA); test: Post-emergence test, herbicidal damage; settings: sprayed after 8 days cultivation, 1000 g/ha unless otherwise stated, evaluated after 13 days, five-point scale
Protocol: as §1

[12] = test system: Zea mays (ZEAMX); test: Post-emergence test, herbicidal damage; settings: sprayed after 8 days cultivation, 1000 g/ha unless otherwise stated, evaluated after 13 days, five-point scale
Protocol: as §1

Compound | percentage damage caused to the plant, AMAPA [1] | percentage damage caused to the plant, AMARE [2] | percentage damage caused to the plant, ECHCG [3] | percentage damage caused to the plant, ZEAMX [4] | percentage damage caused to the plant, IPOHE [5] | percentage damage caused to the plant, SEFTA [6] | percentage damage caused to the plant, AMAPA [7] | percentage damage caused to the plant, AMARE [8] | percentage damage caused to the plant, ECHCG [9] | percentage damage caused to the plant, IPOHE [10] | percentage damage caused to the plant, SEFTA [11] | percentage damage caused to the plant, ZEAMX [12]
Cc1[nH]c(=O)c(C(=O)O)c(-c2ccc(Cl)c(Cl)c2)c1C [Compound 9, 4-(3,4-dichlorophenyl)-5,6-dimethyl-2-oxo-1H-pyridine-3-carboxylic acid] | 0 | 0 | 0 | 0 | 0 | 0 | 1 (1=1-20%) | 1 (1=1-20%) | 0 | 1 (1=1-20%) | 0 | 0
Cc1cc(-c2ccc(Cl)c(Cl)c2)c(C(=O)O)c(=O)n1-c1cccc(C(F)(F)F)c1 [Compound 15, 4-(3,4-dichlorophenyl)-6-methyl-2-oxo-1-[3-(trifluoromethyl)phenyl]pyridine-3-carboxylic acid] | 4 (4=61-80%) | 4 (4=61-80%) | 0 | 0 | 0 | 2 (2=21-40%) | 4 (4=61-80%) | 4 (4=61-80%) | 1 (1=1-20%) | 1 (1=1-20%) | 2 (2=21-40%) | 1 (1=1-20%)
CC#Cc1c(-c2ccc(Cl)c(Cl)c2)c(C(=O)O)c(=O)n(-c2cc(F)cc(Cl)c2)c1C [Compound 40, 1-(3-chloro-5-fluoro-phenyl)-4-(3,4-dichlorophenyl)-6-methyl-2-oxo-5-prop-1-ynyl-pyridine-3-carboxylic acid] | 0 | 0 | 0 | 0 | 0 | 0 | 0 | 0 | 0 | 0 | 0 | 0
C=Cc1c(-c2ccc(Cl)c(Cl)c2)c(C(=O)O)c(=O)n(-c2ccc(Cl)cc2F)c1C [Compound 32, 1-(4-chloro-2-fluoro-phenyl)-4-(3,4-dichlorophenyl)-6-methyl-2-oxo-5-vinyl-pyridine-3-carboxylic acid] | 4 (4=61-80%) | 3 (3=41-60%) | 2 (2=21-40%) | 1 (1=1-20%) | 1 (1=1-20%) | 1 (1=1-20%) | 4 (4=61-80%) | 3 (3=41-60%) | 1 (1=1-20%) | 2 (2=21-40%) | 1 (1=1-20%) | 1 (1=1-20%)
Cc1[nH]c(=O)c(C(=O)O)c(-c2ccc(Cl)c(Cl)c2)c1Br [Compound 1, 5-bromo-4-(3,4-dichlorophenyl)-6-methyl-2-oxo-1H-pyridine-3-carboxylic acid] | 3 (3=41-60%) | 2 (2=21-40%) | 1 (1=1-20%) | 0 | 0 | 0 | 5 (5=81-100%) | 5 (5=81-100%) | 0 | 1 (1=1-20%) | 1 (1=1-20%) | 1 (1=1-20%)
Cc1cc(-c2ccc(Cl)c(Cl)c2)c(C(=O)O)c(=O)n1-c1ncc(Cl)cc1Cl [Compound 19, 4-(3,4-dichlorophenyl)-1-(3,5-dichloro-2-pyridyl)-6-methyl-2-oxo-pyridine-3-carboxylic acid] | 0 | 0 | 0 | 0 | 0 | 0 | 1 (1=1-20%) | 0 | 1 (1=1-20%) | 1 (1=1-20%) | 1 (1=1-20%) | 1 (1=1-20%)
Cc1c(Br)c(-c2ccc(Cl)c(Cl)c2)c(C(=O)O)c(=O)n1Cc1ccc(C#N)cc1F [Compound 33, 5-bromo-1-[(4-cyano-2-fluoro-phenyl)methyl]-4-(3,4-dichlorophenyl)-6-methyl-2-oxo-pyridine-3-carboxylic acid] | 3 (3=41-60%) | 3 (3=41-60%) | 1 (1=1-20%) | 1 (1=1-20%) | 1 (1=1-20%) | 1 (1=1-20%) | 3 (3=41-60%) | 3 (3=41-60%) | 1 (1=1-20%) | 1 (1=1-20%) | 1 (1=1-20%) | 1 (1=1-20%)
CCc1c(-c2ccc(Cl)c(Cl)c2)c(C(=O)O)c(=O)n(-c2ccc(Cl)cc2F)c1C [Compound 35, 1-(4-chloro-2-fluoro-phenyl)-4-(3,4-dichlorophenyl)-5-ethyl-6-methyl-2-oxo-pyridine-3-carboxylic acid] | 4 (4=61-80%) | 4 (4=61-80%) | 1 (1=1-20%) | 0 | 0 | 0 | 4 (4=61-80%) | 4 (4=61-80%) | 0 | 1 (1=1-20%) | 0 | 0
Cc1c(Cl)c(-c2ccc(Cl)c(Cl)c2)c(C(=O)O)c(=O)n1C [Compound 4, 5-chloro-4-(3,4-dichlorophenyl)-1,6-dimethyl-2-oxo-pyridine-3-carboxylic acid] | 1 (1=1-20%) | 1 (1=1-20%) | 0 | 0 | 0 | 0 | 2 (2=21-40%) | 1 (1=1-20%) | 0 | 0 | 0 | 0

From patent publication US20250289787A1, “HERBICIDAL 2-OXO-NICOTINIC ACID DERIVATIVES” (SYNGENTA CROP PROTECTION AG, priority 2022, published 2025)
